Source: patent US8436012B2, “Imidazopyridin-2-one derivatives” (Daiichi Sankyo Company, Limited, priority 2008, dated 2013)

How the values were obtained:
WM-266-4 cells = assay: Cell Proliferation Inhibitory Test; format: cell-based; conditions: Homo sapiens, 72 h, cultured three days with test compound, MTT, read-out: 50% cell proliferation inhibitory activity (GI50 value)
Outline: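 Cells cultured overnight, then exposed to serially diluted compound for three days; cell amount read by MTT. GI50 solved from 100×[(T−T0)/(C−T0)]=50, with T0 the value at time of compound addition and C the untreated three-day control.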

human mTOR = molecular target: T1, human mTOR (Homo sapiens, UniProt P42345); assay: mTOR Kinase Activity Inhibition Test; format: biochemical; conditions: His-tagged mTOR (1362C), biotinylated peptide substrate, ATP, 3 hours at room temperature, fluorescence resonance energy transfer 665 nm/620 nm; read-out: IC50 value of mTOR enzyme inhibitory activity
T1 construct: the portion corresponding to 1362-2549aa at the C terminus of human mTOR; made in house
Outline: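 Purified His-tagged human mTOR (1362–2549aa, from HEK293) was used with biotinylated peptide (8 μg/mL in enzyme solution) in HEPES pH 7.5 with 20 mM MnCl2. Compounds were diluted in 20 μM ATP solution, and the reaction ran 3 h at RT. Phospho-S6K(Thr389) HTRF was read as the 665/620 nm ratio, and IC50 came from % inhibition versus controls.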

T1 sequence (P42345 1362-2549): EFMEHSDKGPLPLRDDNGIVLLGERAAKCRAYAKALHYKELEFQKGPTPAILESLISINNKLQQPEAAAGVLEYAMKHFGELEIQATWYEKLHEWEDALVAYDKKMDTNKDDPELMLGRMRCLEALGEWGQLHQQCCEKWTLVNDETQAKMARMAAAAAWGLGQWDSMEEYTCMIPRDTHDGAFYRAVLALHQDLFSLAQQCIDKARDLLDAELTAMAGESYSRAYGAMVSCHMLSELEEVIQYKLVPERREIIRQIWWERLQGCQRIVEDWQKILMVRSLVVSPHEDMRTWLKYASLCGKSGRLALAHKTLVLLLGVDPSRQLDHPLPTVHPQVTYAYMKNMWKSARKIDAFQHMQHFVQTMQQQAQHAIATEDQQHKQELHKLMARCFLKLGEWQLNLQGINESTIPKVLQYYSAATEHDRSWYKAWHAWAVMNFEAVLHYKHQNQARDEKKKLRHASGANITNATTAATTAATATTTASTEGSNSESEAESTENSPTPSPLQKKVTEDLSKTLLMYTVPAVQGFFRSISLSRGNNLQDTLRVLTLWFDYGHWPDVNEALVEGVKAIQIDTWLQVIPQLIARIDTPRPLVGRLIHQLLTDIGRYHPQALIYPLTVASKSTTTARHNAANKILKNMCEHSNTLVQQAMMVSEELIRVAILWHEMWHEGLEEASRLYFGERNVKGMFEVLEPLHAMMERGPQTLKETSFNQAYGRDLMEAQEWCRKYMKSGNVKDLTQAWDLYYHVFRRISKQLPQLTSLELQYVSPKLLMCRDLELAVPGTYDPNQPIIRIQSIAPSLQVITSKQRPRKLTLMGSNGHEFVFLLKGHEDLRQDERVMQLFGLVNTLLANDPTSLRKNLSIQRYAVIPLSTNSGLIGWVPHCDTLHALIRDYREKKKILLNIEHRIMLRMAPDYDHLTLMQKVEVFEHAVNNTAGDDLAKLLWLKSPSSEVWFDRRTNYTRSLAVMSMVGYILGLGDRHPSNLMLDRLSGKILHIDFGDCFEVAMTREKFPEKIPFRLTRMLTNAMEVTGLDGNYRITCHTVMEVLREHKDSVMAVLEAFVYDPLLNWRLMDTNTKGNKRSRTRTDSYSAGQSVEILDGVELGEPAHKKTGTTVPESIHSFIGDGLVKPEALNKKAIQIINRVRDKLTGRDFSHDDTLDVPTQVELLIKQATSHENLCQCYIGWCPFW

Row | SMILES | GI50 (WM-266-4 cells) [nM] | IC50 (human mTOR) [nM]
1 | CN(C)c1c(-c2cnc3[nH]c(=O)n(C[C@H]4COCCO4)c3c2)cnc2[nH]ccc12 [Example 131, 6-[4-(Dimethylamino)-1H-pyrrolo[2,3-b]pyridin-5-yl]-1-[(2S)-1,4-dioxan-2-ylmethyl]-1,3-dihydro-2H-imidazo[4,5-b]pyridin-2-one] | 3000 to 25000 | 100 to 5000
2 | CN(CCO)c1c(-c2cnc3[nH]c(=O)n(C[C@H]4COCCO4)c3c2)cnc2[nH]ccc12 [Example 132, 1-[(2S)-1,4-Dioxan-2-ylmethyl]-6-{4-[(2-hydroxyethyl)(methyl)amino]-1H-pyrrolo[2,3-b]pyridin-5-yl}-1,3-dihydro-2H-imidazo[4,5-b]pyridin-2-one] | 3000 to 25000 | 100 to 5000
3 | COc1c(-c2cnc3[nH]c(=O)n(C[C@H]4COCCO4)c3c2)cnc2[nH]ccc12 [Example 133, 1-[(2S)-1,4-Dioxan-2-ylmethyl]-6-(4-methoxy-1H-pyrrolo[2,3-b]pyridin-5-yl)-1,3-dihydro-2H-imidazo[4,5-b]pyridin-2-one] | < 3000 | < 50
4 | COc1c[nH]c2ncc(-c3cnc4[nH]c(=O)n(C[C@H]5COCCO5)c4c3)cc12 [Example 134, 1-[(2S)-1,4-Dioxan-2-ylmethyl]-6-(3-methoxy-1H-pyrrolo[2,3-b]pyridin-5-yl)-1,3-dihydro-2H-imidazo[4,5-b]pyridin-2-one] | < 3000 | < 50
5 | CO[C@H]1CC[C@@H](Cn2c(=O)[nH]c3ncc(-c4cnc5[nH]ccc5c4)cc32)OC1 [Example 135, 2,6-Anhydro-1,3,4-trideoxy-5-O-methyl-1-[2-oxo-6-(1H-pyrrolo[2,3-b]pyridin-5-yl)-2,3-dihydro-1H-imidazo[4,5-b]pyridin-1-yl]-D-threo-hexitol] | < 3000 | < 50
6 | CO[C@@H]1CC[C@H](Cn2c(=O)[nH]c3ncc(-c4cnc5[nH]ccc5c4)cc32)OC1 [Example 136, 2,6-Anhydro-1,3,4-trideoxy-5-O-methyl-1-[2-oxo-6-(1H-pyrrolo[2,3-b]pyridin-5-yl)-2,3-dihydro-1H-imidazo[4,5-b]pyridin-1-yl]-L-threo-hexitol] | < 3000 | < 50
7 | CO[C@H]1CCO[C@@H](Cn2c(=O)[nH]c3ncc(-c4cnc5[nH]ccc5c4)cc32)C1 [Example 137, 2,6-Anhydro-1,3,5-trideoxy-4-O-methyl-1-[2-oxo-6-(1H-pyrrolo[2,3-b]pyridin-5-yl)-2,3-dihydro-1H-imidazo[4,5-b]pyridin-1-yl]-L-threo-hexitol] | < 3000 | < 50
8 | CO[C@@H]1CCO[C@H](Cn2c(=O)[nH]c3ncc(-c4cnc5[nH]ccc5c4)cc32)C1 [Example 138, 2,6-Anhydro-1,3,5-trideoxy-4-O-methyl-1-[2-oxo-6-(1H-pyrrolo[2,3-b]pyridin-5-yl)-2,3-dihydro-1H-imidazo[4,5-b]pyridin-1-yl]-D-threo-hexitol] | < 3000 | < 50
9 | CO[C@H]1CCO[C@@H](Cn2c(=O)[nH]c3ncc(-c4cnc5[nH]ccc5c4C)cc32)C1 [Example 139, 2,6-Anhydro-1,3,5-trideoxy-4-O-methyl-1-[6-(4-methyl-1H-pyrrolo[2,3-b]pyridin-5-yl)-2-oxo-2,3-dihydro-1H-imidazo[4,5-b]pyridin-1-yl]-L-threo-hexitol] | < 3000 | < 50
10 | CO[C@@H]1CCO[C@H](Cn2c(=O)[nH]c3ncc(-c4cnc5[nH]ccc5c4C)cc32)C1 [Example 140, 2,6-Anhydro-1,3,5-trideoxy-4-O-methyl-1-[6-(4-methyl-1H-pyrrolo[2,3-b]pyridin-5-yl)-2-oxo-2,3-dihydro-1H-imidazo[4,5-b]pyridin-1-yl]-D-threo-hexitol] | < 3000 | < 50
11 | Cc1c(-c2cnc3[nH]c(=O)n(C[C@H]4CC[C@@H](O)CO4)c3c2)cnc2[nH]ccc12 [Example 143, 2,6-Anhydro-1,3,4-trideoxy-1-[6-(4-methyl-1H-pyrrolo[2,3-b]pyridin-5-yl)-2-oxo-2,3-dihydro-1H-imidazo[4,5-b]pyridin-1-yl]-L-threo-hexitol] | < 3000 | < 50
12 | Cc1c[nH]c2ncc(-c3cnc4[nH]c(=O)n(C[C@H]5CC[C@@H](O)CO5)c4c3)c(C)c12 [Example 144, 2,6-Anhydro-1,3,4-trideoxy-1-[6-(3,4-dimethyl-1H-pyrrolo[2,3-b]pyridin-5-yl)-2-oxo-2,3-dihydro-1H-imidazo[4,5-b]pyridin-1-yl]-L-threo-hexitol] | < 3000 | < 50
13 | Cc1c(-c2cnc3[nH]c(=O)n(C[C@H]4CC[C@@H](O)CO4)c3c2)cnc2[nH]cc(Cl)c12 [Example 145, 2,6-Anhydro-1-[6-(3-chloro-4-methyl-1H-pyrrolo[2,3-b]pyridin-5-yl)-2-oxo-2,3-dihydro-1H-imidazo[4,5-b]pyridin-1-yl]-1,3,4-trideoxy-L-threo-hexitol] | < 3000 | < 50
14 | CO[C@@H]1CC[C@H](Cn2c(=O)[nH]c3ncc(-c4cnc5[nH]ccc5c4C)cc32)OC1 [Example 146, 2,6-Anhydro-1,3,4-trideoxy-5-O-methyl-1-[6-(4-methyl-1H-pyrrolo[2,3-b]pyridin-5-yl)-2-oxo-2,3-dihydro-1H-imidazo[4,5-b]pyridin-1-yl]-L-threo-hexitol] | < 3000 | < 50
15 | CO[C@@H]1CC[C@H](Cn2c(=O)[nH]c3ncc(-c4cnc5[nH]cc(C)c5c4C)cc32)OC1 [Example 147, 2,6-Anhydro-1,3,4-trideoxy-1-[6-(3,4-dimethyl-1H-pyrrolo[2,3-b]pyridin-5-yl)-2-oxo-2,3-dihydro-1H-imidazo[4,5-b]pyridin-1-yl]-5-O-methyl-L-threo-hexitol] | < 3000 | < 50
16 | CO[C@@H]1CC[C@H](Cn2c(=O)[nH]c3ncc(-c4cnc5[nH]cc(Cl)c5c4C)cc32)OC1 [Example 148, 2,6-Anhydro-1-[6-(3-chloro-4-methyl-1H-pyrrolo[2,3-b]pyridin-5-yl)-2-oxo-2,3-dihydro-1H-imidazo[4,5-b]pyridin-1-yl]-1,3,4-trideoxy-5-O-methyl-L-threo-hexitol] | < 3000 | < 50
17 | Cc1nc2[nH]c(=O)n(C[C@H]3CC[C@@H](O)CO3)c2cc1-c1cnc2[nH]ccc2c1 [Example 149, 2,6-Anhydro-1,3,4-trideoxy-1-[5-methyl-2-oxo-6-(1H-pyrrolo[2,3-b]pyridin-5-yl)-2,3-dihydro-1H-imidazo[4,5-b]pyridin-1-yl]-L-threo-hexitol] | < 3000 | < 50
18 | Cc1c[nH]c2ncc(-c3cnc4[nH]c(=O)n(C[C@H]5C[C@@H](O)CCO5)c4c3)c(C)c12 [Example 150, 2,6-Anhydro-1,3,5-trideoxy-1-[6-(3,4-dimethyl-1H-pyrrolo[2,3-b]pyridin-5-yl)-2-oxo-2,3-dihydro-1H-imidazo[4,5-b]pyridin-1-yl]-L-threo-hexitol] | < 3000 | < 50
19 | CO[C@H]1CCO[C@@H](Cn2c(=O)[nH]c3ncc(-c4cnc5[nH]cc(C)c5c4C)cc32)C1 [Example 151, 2,6-Anhydro-1,3,5-trideoxy-1-[6-(3,4-dimethyl-1H-pyrrolo[2,3-b]pyridin-5-yl)-2-oxo-2,3-dihydro-1H-imidazo[4,5-b]pyridin-1-yl]-4-O-methyl-L-threo-hexitol] | < 3000 | < 50
20 | CO[C@H]1CCO[C@@H](Cn2c(=O)[nH]c3ncc(-c4cnc5[nH]cc(Cl)c5c4C)cc32)C1 [Example 152, 2,6-Anhydro-1-[6-(3-chloro-4-methyl-1H-pyrrolo[2,3-b]pyridin-5-yl)-2-oxo-2,3-dihydro-1H-imidazo[4,5-b]pyridin-1-yl]-1,3,5-trideoxy-4-O-methyl-L-threo-hexitol] | < 3000 | < 50
21 | COCC1COC[C@H](Cn2c(=O)[nH]c3ncc(-c4cnc5[nH]ccc5c4C)cc32)O1 (stereo partly drawn) [Example 153, 1-{[(2S)-6-(Methoxymethyl)-1,4-dioxan-2-yl]methyl}-6-(4-methyl-1H-pyrrolo[2,3-b]pyridin-5-yl)-1,3-dihydro-2H-imidazo[4,5-b]pyridin-2-one] | < 3000 | < 50
22 | O=c1[nH]c2nc(Cl)c(-c3cnc4[nH]ccc4c3)cc2n1C[C@H]1COCCO1 [Example 155, 5-Chloro-1-[(2S)-1,4-dioxan-2-ylmethyl]-6-(1H-pyrrolo[2,3-b]pyridin-5-yl)-1,3-dihydro-2H-imidazo[4,5-b]pyridin-2-one] | < 3000 | < 50
